Source: PubChem BioAssay AID248 (DTP/NCI, 2004)
“And” between values parts separate entries of the source, which are not always exact repeats. Identical values can stand only once. Toxic doses and inconclusive results are not listed. No stated cut-off is given here; in the data, active means T/C of 150% or more; inactive means T/C below 125%.

Tested on: L1210 leukemia ip in BDF1 mice, survival T/C
Assay: NCI In Vivo Anticancer Drug Screen. Data for tumor model L1210 Leukemia (intraperitoneal) in B6D2F1 (BDF1) mice
Conditions: higher = longer survival
In short: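 Read-out is survival time, reported as the treated-group measurement over the vehicle-control measurement.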

[1] = endpoint: mean survival time, dose: 100.0 mg/kg/injection, schedule: Q01DX009 (ip), vehicle: Klucel (hydroxypropylcellulose) (HPC)
[2] = endpoint: mean survival time, dose: 100.0 mg/kg/injection, schedule: Q04DX003 (ip), vehicle: Klucel (hydroxypropylcellulose) (HPC)
[3] = endpoint: mean survival time, dose: 200.0 mg/kg/injection, schedule: Q01DX009 (ip), vehicle: Klucel (hydroxypropylcellulose) (HPC)
[4] = endpoint: mean survival time, dose: 200.0 mg/kg/injection, schedule: Q04DX003 (ip), vehicle: Klucel (hydroxypropylcellulose) (HPC)
[5] = endpoint: mean survival time, dose: 400.0 mg/kg/injection, schedule: Q01DX009 (ip), vehicle: Klucel (hydroxypropylcellulose) (HPC)
[6] = endpoint: mean survival time, dose: 400.0 mg/kg/injection, schedule: Q04DX003 (ip), vehicle: Klucel (hydroxypropylcellulose) (HPC)
[7] = endpoint: mean survival time, dose: 100.0 mg/kg/injection, schedule: Q01DX009 (ip), vehicle: saline with Tween-80
[8] = endpoint: mean survival time, dose: 200.0 mg/kg/injection, schedule: Q01DX009 (ip), vehicle: saline with Tween-80
[9] = endpoint: mean survival time, dose: 75.0 mg/kg/injection, schedule: Q01DX001 (ip), vehicle: carboxymethylcellulose (CMC)
[10] = endpoint: mean survival time, dose: 25.0 mg/kg/injection, schedule: Q04DX003 (ip), vehicle: saline
[11] = endpoint: mean survival time, dose: 50.0 mg/kg/injection, schedule: Q04DX003 (ip), vehicle: saline
[12] = endpoint: mean survival time, dose: 100.0 mg/kg/injection, schedule: Q04DX003 (ip), vehicle: saline
[13] = endpoint: mean survival time, dose: 100.0 mg/kg/injection, schedule: Q01DX001 (ip), vehicle: saline
[14] = endpoint: mean survival time, dose: 200.0 mg/kg/injection, schedule: Q01DX001 (ip), vehicle: saline
[15] = endpoint: mean survival time, dose: 400.0 mg/kg/injection, schedule: Q01DX001 (ip), vehicle: saline
[16] = endpoint: mean survival time, dose: 100.0 mg/kg/injection, schedule: Q04DX003 (ip), vehicle: saline with Tween-80
[17] = endpoint: mean survival time, dose: 200.0 mg/kg/injection, schedule: Q04DX003 (ip), vehicle: saline with Tween-80
[18] = endpoint: mean survival time, dose: 400.0 mg/kg/injection, schedule: Q01DX009 (ip), vehicle: saline with Tween-80
[19] = endpoint: mean survival time, dose: 400.0 mg/kg/injection, schedule: Q04DX003 (ip), vehicle: saline with Tween-80

Measured: T/C

COC(=O)CNC(=O)OCc1ccccc1
inactive: [1] 108 % of control | [2] 101 % of control | [3] 97 % of control | [4] 101 % of control | [5] 96 % of control | [6] 98 % of control

CC(C)=C(c1ccc(C(C)(C)C)cc1)c1ccc(C(C)(C)C)cc1
inactive: [7] 94 % of control | [8] 95 % of control

COc1ccc(C[C@H](N)C(=O)NC2C(CO)OC(n3cnc4c(N(C)C)ncnc43)C2O)cc1 (some centres not stated)
inactive: endpoint: mean survival time, dose: 5.0 mg/kg/injection, schedule: Q01DX001 (ip), vehicle: saline 103 % of control | endpoint: mean survival time, dose: 9.94 mg/kg/injection, schedule: Q01DX Z (ip), vehicle: carboxymethylcellulose (CMC) 108 % of control | endpoint: mean survival time, dose: 10.0 mg/kg/injection, schedule: Q01DX001 (ip), vehicle: saline 97 % of control | endpoint: mean survival time, dose: 19.88 mg/kg/injection, schedule: Q01DX Z (ip), vehicle: carboxymethylcellulose (CMC) 117 % of control | endpoint: mean survival time, dose: 20.0 mg/kg/injection, schedule: Q01DX001 (ip), vehicle: saline 95 % of control | endpoint: mean survival time, dose: 39.75 mg/kg/injection, schedule: Q01DX Z (ip), vehicle: carboxymethylcellulose (CMC) 112 % of control | endpoint: mean survival time, dose: 40.0 mg/kg/injection, schedule: Q01DX001 (ip), vehicle: saline 110 % of control | endpoint: mean survival time, dose: 79.5 mg/kg/injection, schedule: Q01DX Z (ip), vehicle: carboxymethylcellulose (CMC) 113 % of control | endpoint: mean survival time, dose: 80.0 mg/kg/injection, schedule: Q01DX001 (ip), vehicle: saline 100 % of control | endpoint: median survival time, dose: 25.0 mg/kg/injection, schedule: Q04DX003 (ip), vehicle: saline 95 % of control | endpoint: median survival time, dose: 50.0 mg/kg/injection, schedule: Q04DX003 (ip), vehicle: saline 107 % of control | endpoint: median survival time, dose: 100.0 mg/kg/injection, schedule: Q04DX003 (ip), vehicle: saline 108 % of control | endpoint: median survival time, dose: 200.0 mg/kg/injection, schedule: Q04DX003 (ip), vehicle: saline 106 % of control

O=C(O)c1cccc(F)c1CBr
inactive: [9] 104 % of control

Cc1nc(N)sc1C
inactive: endpoint: mean survival time, dose: 25.0 mg/kg/injection, schedule: Q04DX002 (ip), vehicle: saline with Tween-80 100 % of control | [10] 89 % of control | endpoint: mean survival time, dose: 50.0 mg/kg/injection, schedule: Q04DX002 (ip), vehicle: saline with Tween-80 102 % of control | [11] 100 % of control | [9] 100 % of control | [12] 102 % of control | endpoint: mean survival time, dose: 150.0 mg/kg/injection, schedule: Q01DX001 (ip), vehicle: carboxymethylcellulose (CMC) 102 % of control | endpoint: mean survival time, dose: 300.0 mg/kg/injection, schedule: Q01DX001 (ip), vehicle: carboxymethylcellulose (CMC) 100 % of control

CN(C)NP(=O)(c1ccccc1)c1ccccc1
inactive: [13] 98 % of control | [14] 95 % of control | [15] 97 % of control

CCOC(=O)CCN(CCC(=O)OCC)C(C)C
inactive: [7] 100 % of control | [16] 101 % of control | [8] 90 % of control | [17] 101 % of control | [18] 98 % of control | [19] 101 % of control

O=C[CH2][Hg][Cl]
inactive: endpoint: mean survival time, dose: 0.78 mg/kg/injection, schedule: Q01DX009 (ip), vehicle: saline with Tween-80 96 % of control | endpoint: mean survival time, dose: 1.56 mg/kg/injection, schedule: Q01DX009 (ip), vehicle: saline with Tween-80 96 % of control | endpoint: mean survival time, dose: 3.13 mg/kg/injection, schedule: Q01DX009 (ip), vehicle: saline with Tween-80 93 % of control

CCOCC(O)CO (configuration not stated)
inactive: [13] 110 % of control | [14] 98 % of control | [15] 96 % of control

Cc1cc(OCc2nc(N)nc(N)c2-c2ccc(Cl)c(Cl)c2)ccc1NC(=O)c1cc(S(=O)(=O)F)ccc1Cl
inactive: endpoint: mean survival time, dose: 100.0 mg/kg/injection, schedule: Q01DX001 (ip), vehicle: saline with Tween-80 98 % of control | endpoint: mean survival time, dose: 200.0 mg/kg/injection, schedule: Q01DX001 (ip), vehicle: saline with Tween-80 93 % of control | endpoint: mean survival time, dose: 400.0 mg/kg/injection, schedule: Q01DX001 (ip), vehicle: saline with Tween-80 97 % of control

Cc1n(CC(C)C)c2c([n+]1C)C(=O)c1ccccc1C2=O
inactive: endpoint: mean survival time, dose: 0.03 mg/kg/injection, schedule: Q01DX001 (ip), vehicle: saline 98 % of control | endpoint: mean survival time, dose: 0.06 mg/kg/injection, schedule: Q01DX001 (ip), vehicle: saline 109 % of control | endpoint: mean survival time, dose: 0.12 mg/kg/injection, schedule: Q01DX001 (ip), vehicle: saline 106 % of control | endpoint: mean survival time, dose: 0.24 mg/kg/injection, schedule: Q01DX001 (ip), vehicle: saline 101 % of control | endpoint: mean survival time, dose: 0.25 mg/kg/injection, schedule: Q01DX015 (ip), vehicle: saline 97 % of control | endpoint: mean survival time, dose: 0.5 mg/kg/injection, schedule: Q01DX015 (ip), vehicle: saline 95 % of control | endpoint: mean survival time, dose: 1.0 mg/kg/injection, schedule: Q01DX015 (ip), vehicle: saline 106 % of control and 108 % of control | endpoint: mean survival time, dose: 2.0 mg/kg/injection, schedule: Q01DX015 (ip), vehicle: saline 108 % of control | endpoint: mean survival time, dose: 2.0 mg/kg/injection, schedule: Q04DX003 (ip), vehicle: saline 91 % of control

OCCN1CCN(CCCN2c3ccccc3C=Cc3ccccc32)CC1
inactive: endpoint: mean survival time, dose: 6.25 mg/kg/injection, schedule: Q01DX009 (ip), vehicle: saline 93 % of control | endpoint: mean survival time, dose: 12.5 mg/kg/injection, schedule: Q01DX009 (ip), vehicle: saline 93 % of control | endpoint: mean survival time, dose: 25.0 mg/kg/injection, schedule: Q01DX009 (ip), vehicle: saline 95 % of control | [10] 93 % of control | endpoint: mean survival time, dose: 50.0 mg/kg/injection, schedule: Q01DX009 (ip), vehicle: saline 102 % of control | [11] 98 % of control | [12] 102 % of control

Cc1ccc(S(=O)(=O)/N=S(/C)c2ccccc2)cc1 (configuration not stated)
inactive: endpoint: mean survival time, dose: 100.0 mg/kg/injection, schedule: Q01DX009 (ip), vehicle: saline sonified 95 % of control | endpoint: mean survival time, dose: 100.0 mg/kg/injection, schedule: Q04DX003 (ip), vehicle: saline sonified 94 % of control | endpoint: mean survival time, dose: 200.0 mg/kg/injection, schedule: Q01DX009 (ip), vehicle: saline sonified 108 % of control | endpoint: mean survival time, dose: 200.0 mg/kg/injection, schedule: Q04DX003 (ip), vehicle: saline sonified 106 % of control | endpoint: mean survival time, dose: 400.0 mg/kg/injection, schedule: Q01DX009 (ip), vehicle: saline sonified 97 % of control | endpoint: mean survival time, dose: 400.0 mg/kg/injection, schedule: Q04DX003 (ip), vehicle: saline sonified 103 % of control

COCC1OC(n2cnc3c(N(C)C)ncnc32)C(OC)C1OC (configuration not stated)
inactive: endpoint: mean survival time, dose: 50.0 mg/kg/injection, schedule: Q01DX005 (ip), vehicle: saline 112 % of control | endpoint: mean survival time, dose: 100.0 mg/kg/injection, schedule: Q01DX005 (ip), vehicle: saline 102 % of control | endpoint: mean survival time, dose: 200.0 mg/kg/injection, schedule: Q01DX005 (ip), vehicle: saline 96 % of control

O=[N+]([O-])c1ccc(Oc2cc(Cl)c(Cl)cc2Cl)nc1
inactive: [7] 101 % of control | [16] 104 % of control | [8] 103 % of control | [17] 102 % of control | [18] 100 % of control | [19] 106 % of control

O=P(CCl)(NC12CC3CC(CC(C3)C1)C2)N1CC1 (configuration not stated)
inactive: endpoint: mean survival time, dose: 50.0 mg/kg/injection, schedule: Q04DX003 (ip), vehicle: Klucel (hydroxypropylcellulose) (HPC) 100 % of control | [1] 97 % of control | [2] 95 % of control | [3] 95 % of control | [4] 103 % of control | [5] 103 % of control | [6] 97 % of control

C[n+]1cccc2c3ccccc3c(-c3ccccc3)cc21
inactive: endpoint: mean survival time, dose: 0.78 mg/kg/injection, schedule: Q01DX009 (ip), vehicle: water 86 % of control | endpoint: mean survival time, dose: 1.56 mg/kg/injection, schedule: Q01DX009 (ip), vehicle: water 102 % of control | endpoint: mean survival time, dose: 3.12 mg/kg/injection, schedule: Q01DX009 (ip), vehicle: water 87 % of control | endpoint: mean survival time, dose: 6.25 mg/kg/injection, schedule: Q01DX009 (ip), vehicle: water 112 % of control and 92 % of control | endpoint: mean survival time, dose: 12.5 mg/kg/injection, schedule: Q04DX003 (ip), vehicle: water 104 % of control | endpoint: mean survival time, dose: 25.0 mg/kg/injection, schedule: Q04DX003 (ip), vehicle: water 104 % of control
